Experimental data: patent US20220143061A1, “3'3'-CYCLIC DINUCLEOTIDES AND PRODRUGS THEREOF” (INSTITUTE OF ORGANIC CHEMISTRY AND BIOCHEMISTRY ASCR, V.V.I., priority 2019, published 2022)
Like-named read-outs stand apart in the source and are kept apart here.

Tests used:
[1] = system: peripheral blood mononuclear cell (PBMC); experiment: Peripheral blood mononuclear cell assay (cytokine levels); assay type: cell-based; conditions: 1 h with compound, wash, 15 hour incubation, average of one to four donors
Protocol: Selected compounds were tested in an in vitro peripheral blood mononuclear cell (PBMC) assay. […] Serially diluted tested compounds were added to wells in 50 μl of cultivation medium and cell were incubated with compounds for 1 h at 37° C. with 5% CO2. Plates with cells were then spun 500 g for 5 minutes and medium was removed. Cells were washed twice with the cell culture medium by the use of centrifugation and gently resuspended in 100 μl medium without compounds. After 15 hour incubation at 37° C. with 5% CO2, the cell culture medium was collected and the levels of interferon-alpha (INF-α), interferon-gamma (INF-γ) and tumor necrosis factor-alpha (TNF-α) were determined with ProcartaPlex Assays (ThermoFisher, Waltham, USA) and MAGPIX System (Merck KGaA, Darmstadt, Germany). […] Values reported are an average of runs from one to four donors.

[2] = target: T1, human wild type STING (WT STING) (Homo sapiens, UniProt Q86WV6, H232R); experiment: Digitonin assay using 293T wtSTING-FL reporter cells; assay type: cell-based; conditions: 293T wtSTING-FL cells, digitonin buffer 30 minutes, then 5 hours; ISRE firefly luciferase
T1 construct: host or cells: 293T cells (ATCC CRL-3216), stably double transfected with pUNO1-hSTING-WT and pGL64.27-4×ISRE
Text: (§1) Two complementary oligonucleotides of the sequence […] […] […] […] […] The oligonucleotides were mixed in equal molar amounts, hybridized, and cleaved by restriction endonucleases HindIII (cat. #. R0104S, NEB, Ipswich, USA) and BglII (cat. #R0144S, NEB, Ipswich, USA). Ultimately, they were ligated into plasmid pGL4.27 (cat. #E6651, Promega, Madison, USA) linearized with the same enzymes. As result the sequence with four ISRE sites was placed upstream of the minimum promoter of firefly luciferase reporter gene.
(§2) After 5 minutes incubation at room temperature (RT), 250 μL of the mixture was added dropwise to the cells in one well. Cells were incubated 36 hours at 37° C. with 5% CO2, and then detached with 0.05% Trypsin and 0.22 g/L EDTA (both cat. #L0941, Biowest, Riverside, USA).
(§3) Transfected cells were seeded onto poly-D-lysine coated six well plates at density 50,000 cells per 1 cm^2 in DMEM medium with high glucose containing 10% heat inactivated FBS, 30 μg/mL blasticidin (cat. #ant-b1-05, InvivoGen, San Diego, USA), 0.06 mg/ml Penicillin G and 0.1 mg/ml Streptomycin Sulfate (both cat. #. L0018, Biowest, Riverside, USA). The medium was replenished every 3-4 days until visible colonies of cells resistant to blasticidin were formed.
(§4) Blasticidin resistant cells stably expressing WT STING were further transfected with pGL64.27-4×ISRE plasmid following the same procedure as described above. […] Homogeneous culture of stably double transfected cells was prepared by limiting dilution of cells in 96 well plates and wells with cells were selected that originated from a single cell.
The medium was removed next day and three fold serial dilutions of compounds in Digitonin buffer containing 50 mmol·l^−1 HEPES (cat. #H3375, Sigma Aldrich, Czech Republic) pH 7.0, 100 mmol·l^−1 KCl, 3 mmol·l^−1 MgCl2, 0.1 mmol·l^−1 DTT (cat. #D0632, Sigma Aldrich, Czech Republic), 85 mmol·l^−1 Sucrose (cat. #S7903, Sigma Aldrich, Czech Republic), 0.2% BSA (cat. #A2153, Sigma Aldrich, Czech Republic), 1 mmol·l^−1 ATP (cat. #A1852, Sigma Aldrich, Czech Republic), 0.1 mmol·l^−1 GTP (cat. #G8877, Sigma Aldrich, Czech Republic), and 10 μg/mL Digitonin A (cat. #D141, Sigma Aldrich, Czech Republic) were added to the cells. The buffer was removed after 30 minutes incubation at 37° C. with 5% C02, the cells were washed once with 100 μl of cultivation medium, and 100 μl of medium was added to each well. The plates with cells were incubated for 5 hours at 37° C. with 5% CO2, 50 μl of the medium was removed and 30 μl of ONE-Glo™ Luciferase Assay System reagent (cat. #E6120, Promega, Madison, USA) was added to each well. Luminesce was read on Synergy H1 (Biotek, Winooski, USA).

[3] = target: T1, human wild type STING (WT STING); experiment: 293T WT STING standard reporter assay; assay type: cell-based; conditions: 293T wtSTING-FL cells, no digitonin, 7 hours; ISRE firefly luciferase; read-out: 293T WT STING EC50
Text: as §1, §2, §3, §4
The medium was removed the next day and three-fold serial dilutions of compounds in 100 μl medium were added to the cells. The plates were incubated for 7 hours at 37° C. with 5% CO2. Next 50 μl of the medium was removed from wells, and 30 μl of ONE-Glo™ Luciferase Assay System reagent (cat. #E6120, Promega, Madison, USA) was added to each well. Luminescence was read on Synergy H1 (Biotek, Winooski, USA).

AQ STING (G230A-R293Q) = target: T2, AQ STING (G230A-R293Q) (Homo sapiens, UniProt Q86WV6, G230A/H232R/R293Q); experiment: Differential Scanning Fluorimetry with AQ STING; assay type: binding; conditions: thermal shift vs apoprotein; 150 μM CDN; truncated AQ STING 0.1 mg/ml
T2 construct: 8xHis (N, cleaved yes); SUMO (N, cleaved yes); made in house
Protocol: (§5) Purified PCR products were cleaved with restriction enzymes BamHI (cat. #R0136S, NEB, Ipswich, USA) and NotI (cat. #R0189S, NEB, Ipswich, USA) and cloned into the pSUMO vector linearized with the identical enzymes.
(§6) DNase I (cat. #D5025, Sigma Aldrich, Czech Republic) and RNase A (cat. #R6513, Sigma Aldrich, Czech Republic) were added (final concentration 50 μg/ml) together with MgCl2 (final concentration 5 mmol·l^−1) to the homogenate and bacteria were lysed using French Press G-M™ High-Pressure Cell Press Homogenizer (1500 psi, 3 cycles). […] The resin was poured into a chromatography column, washed with 50 ml buffer A (50 mmol·l^−1 TrisCl (pH 8.0), 800 mmol·l^−1 NaCl, 3 mmol·l^−1 β-mercaptoethanol; 10% glycerol; 20 mmol·l^−1 imidazole) and 8-His-SUMO tagged STING proteins were eluted with 15 ml buffer A containing 300 mmol·l^−1 imidazole. […] Proteins were concentrated with Amicon® Ultra-15 10 K device (cat. #UFC901008, Merck Millipore, Billerica, USA) and flash frozen in liquid N2.
(§7) 20 μL solutions of the reaction mixtures were pipetted in triplicates into 96 well optical reaction plates and thermal denaturation of samples were performed on real time PCR cycler (LightCycler® 480 Instrument II—Roche, Basel, Switzerland). The first derivative of the thermal denaturation curves was performed to calculate denaturing temperatures of STING-CDN complexes and STING apoproteins. The thermal shift for each CDN was calculated by subtracting the average denaturing temperature of STING apoprotein from the average denaturing temperature of STING CDN complex.

WT STING = target: T3, WT STING (Homo sapiens, UniProt Q86WV6, H232R); experiment: Differential Scanning Fluorimetry with WT STING; assay type: binding; conditions: thermal shift vs apoprotein; 150 μM CDN; truncated WT STING 0.1 mg/ml
T3 construct: 8xHis (N, cleaved yes); SUMO (N, cleaved yes); made in house
Protocol: as §5, §6, §7

T1 sequence (Q86WV6 whole entry H232R): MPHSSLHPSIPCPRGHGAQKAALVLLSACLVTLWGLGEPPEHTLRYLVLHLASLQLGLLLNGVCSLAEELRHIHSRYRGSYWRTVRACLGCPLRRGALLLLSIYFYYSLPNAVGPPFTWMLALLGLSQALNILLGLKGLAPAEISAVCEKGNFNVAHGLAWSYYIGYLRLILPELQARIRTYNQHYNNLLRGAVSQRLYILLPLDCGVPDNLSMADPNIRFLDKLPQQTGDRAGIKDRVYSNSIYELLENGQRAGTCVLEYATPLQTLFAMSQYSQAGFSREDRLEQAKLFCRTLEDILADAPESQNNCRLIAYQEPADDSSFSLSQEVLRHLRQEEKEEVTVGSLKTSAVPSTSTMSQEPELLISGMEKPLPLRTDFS
T3 sequence (Q86WV6 140-343 H232R): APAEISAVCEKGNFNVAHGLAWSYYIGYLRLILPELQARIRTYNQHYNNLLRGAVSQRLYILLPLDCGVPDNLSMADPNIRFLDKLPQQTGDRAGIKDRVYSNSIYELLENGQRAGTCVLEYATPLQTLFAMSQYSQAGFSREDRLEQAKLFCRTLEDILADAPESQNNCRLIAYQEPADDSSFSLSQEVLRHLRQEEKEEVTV
T2 sequence (Q86WV6 140-343 G230A/H232R/R293Q): as the sequence (Q86WV6 140-343 H232R) above, with G91A, R154Q counted along it

SMILES | EC50 [2] [µM] | EC50 [3] [µM] | DSF ΔTm AQ STING (AQ STING (G230A-R293Q)) [°C] | DSF ΔTm WT STING (WT STING) [°C] | EC50 ([1]; read-out: PBMC EC50 IFN-α) [µM] | EC50 ([1]; read-out: PBMC EC50 IFN-γ) [µM] | EC50 ([1]; read-out: PBMC EC50 TNF-α) [µM]
Nc1ncnc2c1ncn2[C@@H]1O[C@@H]2COP(=O)(S)O[C@H]3[C@@H](F)[C@H](n4cnc5c(N)ncnc54)O[C@@H]3COP(=O)(O)CO[C@H]2[C@H]1F (single isomer, unassigned) [Compound 11b] | 0.05 | 1.4 | 18.2 | 13.6 | 123 | > 125 | 118
Nc1ncnc2c1ncn2[C@@H]1O[C@@H]2COP(=O)(S)O[C@H]3[C@@H](F)[C@H](n4cnc5c(N)ncnc54)O[C@@H]3COP(=O)(S)CO[C@H]2[C@H]1F (single isomer, unassigned) [Compound 14a] | 0.06 | 15 | 16.1 | 8.3 |  |  | 
Nc1ncnc2c1ncn2[C@@H]1O[C@@H]2COP(=O)(O)O[C@H]3[C@@H](O)[C@H](n4cnc5c(N)ncnc54)O[C@@H]3COP(=O)(O)O[C@H]2[C@H]1O [3′3′-c-di-AMP, reference compound] | 0.3 | 202 | 9.0 | 2.5 |  |  | 

The next compounds have a lower EC50 [2] than those just listed; values first:

EC50 [2] [µM] | EC50 [3] [µM] | DSF ΔTm AQ STING (AQ STING (G230A-R293Q)) [°C] | DSF ΔTm WT STING (WT STING) [°C] | SMILES | EC50 ([1]; read-out: PBMC EC50 IFN-α) [µM] | EC50 ([1]; read-out: PBMC EC50 IFN-γ) [µM] | EC50 ([1]; read-out: PBMC EC50 TNF-α) [µM]
0.01 | 4.5 | 9.3 | 4.8 | Nc1ncnc2c1ncn2[C@@H]1O[C@@H]2COP(=O)(S)O[C@H]3[C@@H](F)[C@H](n4cnc5c(N)ncnc54)O[C@@H]3COP(=O)(O)CO[C@H]2[C@H]1F (single isomer, unassigned) [Compound 11a] | 400 | 130 | 90
0.01 | 0.2 | 16.7 | 8.6 | Nc1ncnc2c1ncn2[C@@H]1O[C@@H]2COP(=O)(S)O[C@H]3[C@@H](F)[C@H](n4cnc5c(N)ncnc54)O[C@@H]3COP(=O)(S)CO[C@H]2[C@H]1F (single isomer, unassigned) [Compound 14b] | 46 | 33 | 23
0.007 | 0.3 | 17.6 | 8.2 | Nc1ncnc2c1ncn2[C@@H]1O[C@@H]2COP(=O)(S)O[C@H]3[C@@H](F)[C@H](n4cnc5c(N)ncnc54)O[C@@H]3COP(=O)(S)CO[C@H]2[C@H]1F (single isomer, unassigned) [Compound 14c] | 68 | 44 | 51
0.03 | 10.2 | 19.4 |  | Nc1nc2c(ncn2[C@@H]2O[C@@H]3COP(=O)(O)O[C@@H]4[C@H](O)[C@@H](COP(=O)(O)O[C@@H]2[C@@H]3O)O[C@H]4n2cnc3c(N)ncnc32)c(=O)[nH]1 [2′2′-cGAMP, reference compound] |  |  | 
0.01 | 3.1 | 16.1 | 9.4 | Nc1ncnc2c1ncn2[C@@H]1O[C@@H]2COP(=O)(O)O[C@H]3[C@@H](F)[C@H](n4cnc5c(N)ncnc54)O[C@@H]3COP(=O)(O)CO[C@H]2[C@H]1F [Compound 21, (2R,3R,3aR,7aR,9R,10R,10aR,15aR)-2,9-bis(6-amino-9H-purin-9-yl)-3,10-difluoro-5,13-dihydroxydecahydro-2H-difuro[3,2-d:3′,2′-k][1,3,7,10]tetraoxa[2,8]diphosphacyclotridecine 5,13-dioxide] | 100 | 26 | 50
